The text below walks through data of the NIST ThermoML archive (doi:10.1021/je400488x).

Numbers after ± are expanded uncertainties.

The conditions of data set [1]: 293.15 K; 101.33 kPa; Liquid; Vibrating tube method.
Data set [2] is described as follows: refractive index (Na D-line) (dimensionless). To be noted: 298.15 K; 101.33 kPa; Liquid; Standard Abbe refractometry.

One may read the mass density as mass per unit of volume. With `Oc1ccc(O)cc1` [1,4-benzenediol], the mass density in data set [1] is 1328 ± 1 kg/m3.

By refractive index is commonly meant the speed of light in vacuum divided by its phase velocity in the sample. For the compound `COC(C)(C)C` [2-methoxy-2-methylpropane], the mass density in data set [1] is reported as 739.8 ± 0.4 kg/m3. Also, the refractive index in data set [2] came to 1.3689 ± 0.0005.
